≈ marks a conversion by molar mass, not a printed value.
What was measured:
[1] = system: Staphylococcus aureus ATCC 25923; assay: Antimicrobial activity (MIC, MBC) against S. aureus; type: cell-based; conditions: S. aureus ATCC 25923; for MBC/MIC: bactericidal ≤ 4, bacteriostatic > 4; for MIC: Staphylococcus aureus, ATCC25923, '-' = No activity
[2] = system: Escherichia coli ATCC 25922; assay: Antimicrobial activity (MIC, MBC) against E. coli; type: cell-based; conditions: E. coli ATCC 25922; '-' = No activity
[3] = system: Pseudomonas aeruginosa ATCC 27853; assay: Antimicrobial activity (MIC, MBC) against P. aeruginosa; type: cell-based; conditions: P. aeruginosa ATCC 27853, '-' = No activity
[4] = system: Candida albicans ATCC 90028; assay: Antifungal activity (MIC, MFC) against C. albicans; type: cell-based; conditions: C. albicans ATCC 90028, '-' = No activity; for MFC/MIC: fungicidal ≤ 4, fungistatic > 4; for MFC / MIC: Candida albicans, ATCC90028
Candida krusei ATCC 6258 = assay: Antifungal activity (MIC, MFC) against C. krusei; type: cell-based; conditions: C. krusei ATCC 6258, '-' = No activity; for MFC / MIC: Pichia kudriavzevii, ATCC6258
[5] = DPPH free radical scavenging activity; conditions: DPPH radical scavenging
Experimental: DPPH, the stable artificial free radicals, has been widely used for the measurement of free radical scavenging capacity of the compounds in ethanol and aqueous systems. Briefly, 2 mL DPPH solution (0.2 mM, in 95% ethanol) was incubated with 2 mL different concentrations of compounds solution. Then, the reaction mixture was shaken and incubated in the dark for 40 min at room temperature. The absorbance was immediately recorded at 517 nm against ethanol with a spectrophotometer (Metash, model UV-5200, Shanghai Xiwen Biotech. Co., Ltd, Shanghai, China). The DPPH free radical scavenging rate was calculated using the equation:DPPH scavenging activity (%) = A0 − A1/A0 × 100 where A0 was the absorbance of the control reaction (containing all reagents except the tested compound), and A1 was the absorbance of the test reaction (containing all reagents with the tested compound). The percentage of DPPH radical scavenging activity was plotted against the sample concentration to acquire the IC50 value, defined as the concentration of sample necessary to cause 50% inhibition. Radical scavenging activity (RSA) was calculated from the IC50 value as the equation: RSA = pIC50 = −lg[IC50]. The smaller the IC50 value, the larger is the RSA value and the higher is the antioxidant activity.

[6] = Radical scavenging activity ABTS; conditions: for IC50: ABTS radical scavenging; for ABTS scavenging activity, fold higher than Trolox: relative to standard Trolox
Experimental: The ABTS assay was performed as previously described by Tuberoso et al.. ABTS^+ radical was generated by oxidation of ABTS with potassium persulfate. The blue–green ABTS was produced through the reaction between 2 mM ABTS and […] potassium persulfate in water. The mixture was left to stand in the dark for 12 to 16 h before use. The ABTS solution was diluted with methanol to an absorbance of 0.700 ± 0.005 at 734 nm. Then 2 mL of diluted ABTS solution was mixed with 100 μL of samples and absorbance was measured after 1 min incubation at room temperature. A standard curve was obtained by using Trolox as standard solution. The results were expressed as μM Trolox equivalent.
The mixture of 7 mmol/L aqueous ABTS solution with 2.45 mmol/L potassium persulfate solution constitutes a stable ABTS^+ stock solution that was allowed to stand in the dark and at room temperature for 12 to 16 h before use. A 1 mL sample of the diluted ABTS solution (adjusted to 0.7 ± 0.02 at […]) was added to 10 μL of each product. The absorbance was determined after 6 min. The percentage inhibition of the ABTS˙ radical was calculated from the following equation:% inhibition = (Abscontrol − Abstest)/Abscontrol × 100
Abs control: the control absorbance.
Abs test: the absorbance of the test sample after 6 min.

[7] = Ferric reducing power assay (FRAP)
[8] = system: Micrococccus luteus NCIMB 8166; assay: Antimicrobial activity (MIC, MBC) against M. luteus; type: cell-based; conditions: M. luteus NCIMB 8166, '-' = No activity; for MIC: Micrococcus luteus, NCIMB8166

Row | MBC/MIC [2] | MBC/MIC [3] | MFC/MIC (Candida krusei ATCC 6258) | MIC (Candida krusei ATCC 6258) [mM] | IC50 [5] [µM] | IC50 [6] [µM] | melting point [°C] | IC50 [7] [µM] | MIC [1] [mM] | MIC [4] [mM] | MBC/MIC [8] | MIC [8] [mM] | MIC ([3]; Pseudomonas aeruginosa, ATCC27853) [mM] | SMILES | MBC/MIC [1] | MFC/MIC [4] | MFC (Candida krusei ATCC 6258) [mM] | MFC [4] [mM] | ABTS scavenging activity, fold higher than Trolox [6]
1 | 2 | 4 | 1 | 67.6 (≈ 31.1 mg/mL) | 15.4 ± 0.65 | 49.19 ± 0.46 | 173 to 175 | 17 ± 0.52 |  |  |  |  |  | CN1C(=O)CC2(C1=O)C(c1ccccc1)CN(C)C21c2ccccc2-c2nc3ccccc3nc21 (stereo not shown) [5a, Spiro [2,11″]indeno-[1,2b]-quinoxaline-spiro-[3,3′]-N-methylsuccinimide-4-(phenyl)hexahydro-1H-pyrrolidines] | 2 | 1 | 67.6 (≈ 31.1 mg/mL) |  | 
2 | 2 | 4 | 1 | 65.6 (≈ 31.1 mg/mL) | 33.74 ± 0.004 | 57.51 ± 0.55 | 183 to 185 | 63.26 ± 0.21 | 65.6 (≈ 31.1 mg/mL) |  |  |  |  | Cc1ccc(C2CN(C)C3(c4ccccc4-c4nc5ccccc5nc43)C23CC(=O)N(C)C3=O)cc1 (stereo not shown) [5b, Spiro [2,11″]indeno-[1,2b]-quinoxaline-spiro-[3,3′]-N-methylsuccinimide-4-(4-methylphenyl)hexahydro-1H-pyrrolidines] | 8 | 2 | 65.6 (≈ 31.1 mg/mL) |  | 
3 |  | 2 | 1 | 63.4 (≈ 31.1 mg/mL) | 3.26 ± 0.32 | 7.03 ± 0.07 | 196 to 198 | 3.69 ± 0.72 | 31.7 (≈ 15.6 mg/mL) | 63.4 (≈ 31.1 mg/mL) |  |  |  | COc1ccccc1C1CN(C)C2(c3ccccc3-c3nc4ccccc4nc32)C12CC(=O)N(C)C2=O (stereo not shown) [5c, Spiro [2,11″]indeno-[1,2b]-quinoxaline-spiro-[3,3′]-N-methylsuccinimide-4-(2 methoxyphenyl)hexahydro-1H-pyrrolidines] | 16 | 1 | 63.4 (≈ 31.1 mg/mL) | 63.4 (≈ 31.1 mg/mL) | 
4 | 4 | 4 | 1 | 15.8 (≈ 7.78 mg/mL) | 7.44 ± 0.15 | 9.78 ± 0.3 | 179 to 181 | 8.09 ± 0.82 | 3.95 (≈ 1.94 mg/mL) | 31.7 (≈ 15.6 mg/mL) | 4 | 63.4 (≈ 31.1 mg/mL) |  | COc1ccc(C2CN(C)C3(c4ccccc4-c4nc5ccccc5nc43)C23CC(=O)N(C)C3=O)cc1 (stereo not shown) [5d, Spiro [2,11″]indeno-[1,2b]-quinoxaline-spiro-[3,3′]-N-methylsuccinimide-4-(4-methoxyphenyl)hexahydro-1H-pyrrolidines] | 32 | 4 | 15.8 (≈ 7.78 mg/mL) |  | 
5 | 2 | 2 | 1 | 57.7 (≈ 31.1 mg/mL) | 16.1 ± 0.39 | 18.1 ± 0.53 | 200 to 202 | 7.93 ± 0.44 |  | 57.7 (≈ 31.1 mg/mL) |  |  |  | CN1C(=O)CC2(C1=O)C(c1ccc(Br)cc1)CN(C)C21c2ccccc2-c2nc3ccccc3nc21 (stereo not shown) [5f, Spiro [2,11″]indeno-[1,2b]-quinoxaline-spiro-[3,3′]-N-methylsuccinimide-4-(4-bromophenyl)hexahydro-1H-pyrrolidines] | 2 | 1 | 57.7 (≈ 31.1 mg/mL) | 57.7 (≈ 31.1 mg/mL) | ~6 fold
6 | 2 | 2 | 1 | 32.5 (≈ 15.6 mg/mL) | 26 ± 0.5 | 7.19 ± 0.11 | 205 to 207 | 20.5 ± 0.6 | 16.2 (≈ 7.78 mg/mL) | 65 (≈ 31.1 mg/mL) |  |  |  | CN1C(=O)CC2(C1=O)C(c1ccc(F)cc1)CN(C)C21c2ccccc2-c2nc3ccccc3nc21 (stereo not shown) [5g, Spiro [2,11″]indeno-[1,2b]-quinoxaline-spiro-[3,3′]-N-methylsuccinimide-4-(4-fluorophenyl)hexahydro-1H-pyrrolidines] | 16 | 1 | 32.5 (≈ 15.6 mg/mL) | 65 (≈ 31.1 mg/mL) | about 14 fold
7 | 2 | 2 | 1 | 59.8 (≈ 31.1 mg/mL) | 19.2 ± 0.19 | 11.56 ± 0.05 | 211 to 213 | 5.98 ± 0.17 | 14.9 (≈ 7.78 mg/mL) |  | 2 |  |  | COc1ccc(C2CN(C)C3(c4ccccc4-c4nc5ccccc5nc43)C23CC(=O)N(C)C3=O)cc1OC (stereo not shown) [5j, Spiro [2,11″]indeno-[1,2b]-quinoxaline-spiro-[3,3′]-N-methylsuccinimide-4-(3,4-dimethoxyphenyl)hexahydro-1H-pyrrolidines] | 32 | 2 | 59.8 (≈ 31.1 mg/mL) |  | 
8 | 2 | 2 | 1 | 54.7 (≈ 31.1 mg/mL) | 123.4 ± 0.45 | 7.69 ± 0.36 | 209 to 211 | 6.03 ± 0.12 | 54.7 (≈ 31.1 mg/mL) |  |  |  |  | COc1ccc(C2CN(C)C3(c4ccccc4-c4nc5ccccc5nc43)C23CC(=O)N(C)C3=O)cc1Br (stereo not shown) [5k, Spiro [2,11″]indeno-[1,2b]-quinoxaline-spiro-[3,3′]-N-methylsuccinimide-4-(3-bromo-4-methoxyphenyl)hexahydro-1H-pyrrolidines] | 8 | 1 | 54.7 (≈ 31.1 mg/mL) |  | 
9 | 2 | 4 | 1 | 28 (≈ 15.6 mg/mL) | 15.3 ± 0.37 | 15.2 ± 0.31 | 189 to 191 | 3.26 ± 0.45 | 28 (≈ 15.6 mg/mL) | 56.1 (≈ 31.1 mg/mL) | 2 |  |  | CN1C(=O)CC2(C1=O)C(c1ccc(O)c(Br)c1)CN(C)C21c2ccccc2-c2nc3ccccc3nc21 (stereo not shown) [5l, Spiro [2,11″]indeno-[1,2b]-quinoxaline-spiro-[3,3′]-N-methylsuccinimide-4-(3-bromo-4-hydroxy-phenyl)hexahydro-1H-pyrrolidines] | 16 | 8 | 28 (≈ 15.6 mg/mL) |  | 
10 | 1 | 4 | 1 | 49.1 (≈ 31.1 mg/mL) | 47.29 ± 0.06 | 14.6 ± 0.26 | 214 to 216 | 7.38 ± 0.14 | 24.5 (≈ 15.6 mg/mL) | 98.2 (≈ 62.3 mg/mL) |  | 98.2 (≈ 62.3 mg/mL) | 98.2 (≈ 62.3 mg/mL) | CN1C(=O)CC2(C1=O)C(c1cc(Br)c(O)c(Br)c1)CN(C)C21c2ccccc2-c2nc3ccccc3nc21 (stereo not shown) [5m, Spiro [2,11″]indeno-[1,2b]-quinoxaline-spiro-[3,3′]-N-methylsuccinimide-4-(3,5-dibromo-4-hydroxyphenyl)hexahydro-1H-pyrrolidines] | 8 | 1 | 49.1 (≈ 31.1 mg/mL) | 98.2 (≈ 62.3 mg/mL) | 
11 |  |  | 1 | 5.41 (≈ 5 mg/mL) |  |  |  |  |  | 5.41 (≈ 5 mg/mL) |  |  |  | C[C@@H]1[C@H](O)[C@@H](C)/C=C/C=C/C=C/C=C/C=C/C=C/C=C/[C@H](O[C@@H]2O[C@H](C)[C@@H](O)[C@H](N)[C@@H]2O)C[C@@H]2O[C@](O)(C[C@@H](O)C[C@@H](O)[C@H](O)CC[C@@H](O)C[C@@H](O)CC(=O)O[C@H]1C)C[C@H](O)[C@H]2C(=O)O [Amphotericin B, reference compound] |  | 1 | 5.41 (≈ 5 mg/mL) | 5.41 (≈ 5 mg/mL) | 
12 |  |  |  |  | 31.2 ± 3.67 | 99.88 ± 0.31 |  | 41.9 ± 2.07 |  |  |  |  |  | Cc1c(C)c2c(c(C)c1O)CCC(C)(C(=O)O)O2 (stereo not shown) [Trolox, reference compound] |  |  |  |  | 

Row | SMILES | MBC/MIC [2] | MBC/MIC [3] | MFC/MIC (Candida krusei ATCC 6258) | MIC (Candida krusei ATCC 6258) [mM] | IC50 [5] [µM] | IC50 [6] [µM] | melting point [°C] | IC50 [7] [µM] | MIC [1] [mM] | MIC [4] [mM] | MBC/MIC [8] | MIC [8] [mM] | MIC ([3]; Pseudomonas aeruginosa, ATCC27853) [mM] | MBC/MIC [1] | MFC/MIC [4] | MFC (Candida krusei ATCC 6258) [mM] | MFC [4] [mM] | ABTS scavenging activity, fold higher than Trolox [6]
13 | CN(C)[C@@H]1C(O)=C(C(N)=O)C(=O)[C@@]2(O)C(O)=C3C(=O)c4c(O)cccc4[C@@](C)(O)[C@H]3C[C@@H]12 [Tetracycline, reference compound] | 1 | 2 |  |  |  |  |  |  |  |  | 2 |  |  | 2 |  |  |  | 
